Our source for the Dmax and DC50 values is patent US11427548B2 (Arvinas Operations, Inc., priority 2015, dated 2022).

This test has as its target T1, Androgen Receptor (Homo sapiens, UniProt P10275).
T1 construct: endogenous in cells; host or cells: VCaP cells
T1 sequence (P10275 1-920): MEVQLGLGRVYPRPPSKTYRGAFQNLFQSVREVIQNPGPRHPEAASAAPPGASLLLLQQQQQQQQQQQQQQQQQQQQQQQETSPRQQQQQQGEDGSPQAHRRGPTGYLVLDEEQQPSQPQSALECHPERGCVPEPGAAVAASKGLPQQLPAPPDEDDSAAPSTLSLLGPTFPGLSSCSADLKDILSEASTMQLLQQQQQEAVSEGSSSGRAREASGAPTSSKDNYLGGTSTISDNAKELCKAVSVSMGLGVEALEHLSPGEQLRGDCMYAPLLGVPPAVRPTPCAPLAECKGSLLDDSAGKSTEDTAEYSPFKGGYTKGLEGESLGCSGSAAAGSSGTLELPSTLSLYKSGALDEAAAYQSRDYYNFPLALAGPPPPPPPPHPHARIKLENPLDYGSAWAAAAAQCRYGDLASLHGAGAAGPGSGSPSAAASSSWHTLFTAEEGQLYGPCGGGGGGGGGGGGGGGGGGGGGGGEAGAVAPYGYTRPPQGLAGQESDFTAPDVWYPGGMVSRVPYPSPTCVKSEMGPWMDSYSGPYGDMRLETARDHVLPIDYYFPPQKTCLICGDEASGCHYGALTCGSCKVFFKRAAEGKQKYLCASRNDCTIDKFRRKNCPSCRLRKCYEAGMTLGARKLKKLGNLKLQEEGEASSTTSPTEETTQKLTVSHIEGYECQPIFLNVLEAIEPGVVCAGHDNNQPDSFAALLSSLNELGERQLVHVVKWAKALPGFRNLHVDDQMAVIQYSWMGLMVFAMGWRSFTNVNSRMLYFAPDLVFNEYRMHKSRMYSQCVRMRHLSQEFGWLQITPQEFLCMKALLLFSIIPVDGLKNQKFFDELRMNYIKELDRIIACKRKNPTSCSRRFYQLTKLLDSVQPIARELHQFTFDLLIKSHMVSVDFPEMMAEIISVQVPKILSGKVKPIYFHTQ
In words: Androgen Receptor ELISA assay (PathScan AR ELISA) in VCaP cells: AR degradation, Dmax and DC50. The test is classed as cell-based. The method, boiled down: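 VCaP cells in phenol red-free RPMI with 5% charcoal-stripped FBS were grown at least 3 days, then given compound as 7 half-log doses in 0.1% DMSO with 0.1 nM R1881 for 24 h. Lysates went into a sandwich AR ELISA with TMB read at 450 nm.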

Where [1] appears, read: read-out: VCaP DC50; concentration that caused 50% Androgen Receptor degradation, VCaP cells.
Where [2] appears, read: read-out: VCaP DC50; concentration that caused 50% Androgen Receptor degradation, VCaP cells (Table 32).

Like-named read-outs stand apart in the source and are kept apart here.

A word on the Dmax: it is the greatest extent of degradation seen. Usually DC50 stands for the concentration giving 50% degradation. Turning to `COc1cc(N2C(=O)C(C)(C)N(c3ccc(OCCCCOCCCOCC(=O)N[C@H](C(=O)N4C[C@H](O)C[C@H]4C(=O)NCc4ccc(-c5cnco5)cc4)C(C)(C)C)c(F)c3)C2=S)ccc1C#N` [Example 49, (2S,4R)-1-[(2S)-2-{2-[3-(4-{4-[3-(4-cyano-3-methoxyphenyl)-5,5-dimethyl-4-oxo-2-sulfanylideneimidazolidin-1-yl]-2-fluorophenoxy}butoxy)propoxy]acetamido}-3,3-dimethylbutanoyl]-4-hydroxy-N-{[4-(1,3-oxazol-5-yl)phenyl]methyl}pyrrolidine-2-carboxamide], the maximal degradation (Dmax) (VCaP, highest percentage of Androgen Receptor degradation observed, VCaP cells; read-out: VCaP Dmax (%)) was in the range of 51 to 70%. The DC50 (concentration that caused 50% Androgen Receptor degradation, VCaP cells; read-out: VCaP DC50) is below 50 nM.

Take `Cn1nccc1-c1ccc(CNC(=O)[C@@H]2C[C@@H](O)CN2C(=O)[C@@H](NC(=O)COCCCOCCCCOc2ccc(N3C(=S)N(c4ccc(C#N)c(Cl)c4)C(=O)C3(C)C)cc2F)C(C)(C)C)cc1` [Example 50, (2S,4R)-1-[(2S)-2-{2-[3-(4-{4-[3-(3-chloro-4-cyanophenyl)-5,5-dimethyl-4-oxo-2-sulfanylideneimidazolidin-1-yl]-2-fluorophenoxy}butoxy)propoxy]acetamido}-3,3-dimethylbutanoyl]-4-hydroxy-N-{[4-(1-methyl-1H-pyrazol-5-yl)phenyl]methyl}pyrrolidine-2-carboxamide]: under “VCaP, read-out: VCaP Dmax (%)”, the Dmax is above 71%. Moreover, the DC50 under setting [1] is below 50 nM.

For `Cc1ncsc1-c1ccc(CNC(=O)[C@@H]2C[C@@H](O)CN2C(=O)[C@@H](NC(=O)COCCCOCCCCOc2ccc(N3C(=S)N(c4ccc(C#N)c(C(F)(F)F)c4)C(=O)C34CCN(C)CC4)cc2)C(C)(C)C)cc1` [Example 51, (2S,4R)-1-[(2S)-2-(2-{3-[4-(4-{3-[4-cyano-3-(trifluoromethyl)phenyl]-8-methyl-4-oxo-2-sulfanylidene-1,3,8-triazaspiro[4.5]decan-1-yl}phenoxy)butoxy]propoxy}acetamido)-3,3-dimethylbutanoyl]-4-hydroxy-N-{[4-(4-methyl-1,3-thiazol-5-yl)phenyl]methyl}pyrrolidine-2-carboxamide], under “VCaP, read-out: VCaP Dmax (%)”, the Dmax was in the range of 26 to 50%. In addition, the 50% degradation concentration (DC50) under setting [1] is below 50 nM.

With `Cc1ncsc1-c1ccc(CNC(=O)[C@@H]2C[C@@H](O)CN2C(=O)[C@@H](NC(=O)COCCCCOCCCOc2ccc(N3C(=S)N(c4ccc(C#N)c(C(F)(F)F)c4)C(=O)C3(C)C)cc2F)C(C)(C)C)cc1` [Example 53, (2S,4R)-1-[(2S)-2-(2-{4-[3-(4-{3-[4-cyano-3-(trifluoromethyl)phenyl]-5,5-dimethyl-4-oxo-2-sulfanylideneimidazolidin-1-yl}-2-fluorophenoxy)propoxy]butoxy}acetamido)-3,3-dimethylbutanoyl]-4-hydroxy-N-{[4-(4-methyl-1,3-thiazol-5-yl)phenyl]methyl}pyrrolidine-2-carboxamide], under “VCaP, read-out: VCaP Dmax (%)”, the greatest degradation seen (Dmax) is above 71%. Under setting [1], the DC50 was in the range of 51 to 500 nM.

Take `CC(C)(C)[C@H](NC(=O)COCC#CC#CCOc1ccc(N2C(=S)N(c3ccc(C#N)c(Cl)c3)C(=O)C2(C)C)cc1F)C(=O)N1C[C@H](O)C[C@H]1C(=O)NCc1ccc(-c2cnco2)cc1` [Example 60, (2S,4R)-1-[(2S)-2-{2-[(6-{4-[3-(3-chloro-4-cyanophenyl)-5,5-dimethyl-4-oxo-2-sulfanylideneimidazolidin-1-yl]-2-fluorophenoxy}hexa-2,4-diyn-1-yl)oxy]acetamido}-3,3-dimethylbutanoyl]-4-hydroxy-N-{[4-(1,3-oxazol-5-yl)phenyl]methyl}pyrrolidine-2-carboxamide]: for the setting “VCaP, read-out: VCaP Dmax (%)”, the Dmax lay in the range of 51 to 70%. Besides, under setting [1], the 50% degradation concentration (DC50) is 51 to 500 nM.

Consider `CC(C)(C)[C@H](NC(=O)COCC#CC#CCOc1ccc(N2C(=S)N(c3ccc(C#N)c(C(F)(F)F)c3)C(=O)C2(C)C)cc1F)C(=O)N1C[C@H](O)C[C@H]1C(=O)NCc1ccc(-c2cnco2)cc1` [Example 61, (2S,4R)-1-[(2S)-2-(2-{[6-(4-{3-[4-cyano-3-(trifluoromethyl)phenyl]-5,5-dimethyl-4-oxo-2-sulfanylideneimidazolidin-1-yl}-2-fluorophenoxy)hexa-2,4-diyn-1-yl]oxy}acetamido)-3,3-dimethylbutanoyl]-4-hydroxy-N-{[4-(1,3-oxazol-5-yl)phenyl]methyl}pyrrolidine-2-carboxamide], for which the greatest degradation seen (Dmax) (VCaP, read-out: VCaP Dmax (%)) lay in the range of 51 to 70%. Besides, the 50% degradation concentration (DC50) under setting [1] was in the range of 51 to 500 nM.

On to `Cc1ncsc1-c1ccc(CNC(=O)[C@@H]2C[C@@H](O)CN2C(=O)[C@@H](NC(=O)CCOCCOc2ccc(-c3ccc(N4C(=S)N(c5ccc(C#N)c(C(F)(F)F)c5)C(=O)C4(C)C)cc3)cn2)C(C)(C)C)cc1` [Example 86], for which the greatest degradation seen (Dmax) (VCaP, read-out: VCaP Dmax (%)) was in the range of 26 to 50%. Further, the DC50 under setting [2] is below 50 nM.

Take `Cc1ncsc1-c1ccc(CNC(=O)[C@@H]2C[C@@H](O)CN2C(=O)[C@@H](NC(=O)CCOCCOc2ccc(-c3ccc(N4C(=S)N(c5ccc(C#N)c(C(F)(F)F)c5)C(=O)C4(C)C)cc3)nc2)C(C)(C)C)cc1` [Example 87]: the greatest degradation seen (Dmax) (VCaP, read-out: VCaP Dmax (%)) was in the range of 26 to 50%. The DC50 under setting [2] is below 50 nM.

For the compound `CC(C)(C)[C@H](NC(=O)COCCCCOc1ccc(-c2ccc(N3C(=S)N(c4ccc(C#N)c(Cl)c4)C(=O)C3(C)C)cc2)nc1)C(=O)N1C[C@H](O)C[C@H]1C(=O)NCc1ccc(-c2cnco2)cc1` [Example 89], the greatest degradation seen (Dmax) (VCaP, read-out: VCaP Dmax (%)) is above 71%. Further, the DC50 under setting [2] is below 50 nM.

Regarding `CC(C)(C)[C@H](NC(=O)COCCCCOc1ccc(-c2ccc(N3C(=S)N(c4ccc(C#N)c(Cl)c4)C(=O)C3(C)C)cc2)cc1)C(=O)N1C[C@H](O)C[C@H]1C(=O)NCc1ccc(-c2cnco2)cc1` [Example 94, (2S,4R)-1-[(2S)-2-{2-[4-(4-{4-[3-(3-chloro-4-cyanophenyl)-5,5-dimethyl-4-oxo-2-sulfanylideneimidazolidin-1-yl]phenyl}phenoxy)butoxy]acetamido}-3,3-dimethylbutanoyl]-4-hydroxy-N-{[4-(1,3-oxazol-5-yl)phenyl]methyl}pyrrolidine-2-carboxamide], the Dmax (VCaP, read-out: VCaP Dmax (%)) was above 71%. The half-maximal degradation concentration (DC50) under setting [2] is below 50 nM.

With `Cc1ncsc1-c1ccc([C@H](C)NC(=O)[C@@H]2C[C@@H](O)CN2C(=O)[C@@H](NC(=O)COCCCCOc2ccc(-c3ccc(N4C(=S)N(c5ccc(C#N)c(C(F)(F)F)c5)C(=O)C4(C)C)cc3)cc2)C(C)(C)C)cc1` [Example 95, (2S,4R)-1-[(2S)-2-(2-{4-[4-(4-{3-[4-cyano-3-(trifluoromethyl)phenyl]-5,5-dimethyl-4-oxo-2-sulfanylideneimidazolidin-1-yl}phenyl)phenoxy]butoxy}acetamido)-3,3-dimethylbutanoyl]-4-hydroxy-N-[(1S)-1-[4-(4-methyl-1,3-thiazol-5-yl)phenyl]ethyl]pyrrolidine-2-carboxamide], the Dmax (VCaP, read-out: VCaP Dmax (%)) is above 71%. Also, under setting [2], the DC50 is below 50 nM.

For the compound `CC(C)(C)[C@H](NC(=O)COCCCCOc1ccc(-c2ccc(N3C(=S)N(c4ccc(C#N)c(C(F)(F)F)c4)C(=O)C3(C)C)cc2)cc1)C(=O)N1C[C@H](O)C[C@H]1C(=O)NCc1ccc(-c2cnco2)cc1` [Example 96, (2S,4R)-1-[(2S)-2-(2-{4-[4-(4-{3-[4-cyano-3-(trifluoromethyl)phenyl]-5,5-dimethyl-4-oxo-2-sulfanylideneimidazolidin-1-yl}phenyl)phenoxy]butoxy}acetamido)-3,3-dimethylbutanoyl]-4-hydroxy-N-{[4-(1,3-oxazol-5-yl)phenyl]methyl}pyrrolidine-2-carboxamide], the Dmax (VCaP, read-out: VCaP Dmax (%)) fell in the range of 51 to 70%. Also, under setting [2], the DC50 was below 50 nM.

For the compound `Cc1ncsc1-c1ccc(CNC(=O)[C@@H]2C[C@@H](O)CN2C(=O)[C@@H](NC(=O)COCCCCOc2cccc(-c3ccc(N4C(=S)N(c5ccc(C#N)c(C(F)(F)F)c5)C(=O)C4(C)C)cc3)c2)C(C)(C)C)cc1` [Example 99, (2S,4R)-1-[(2S)-2-(2-{4-[3-(4-{3-[4-cyano-3-(trifluoromethyl)phenyl]-5,5-dimethyl-4-oxo-2-sulfanylideneimidazolidin-1-yl}phenyl)phenoxy]butoxy}acetamido)-3,3-dimethylbutanoyl]-4-hydroxy-N-{[4-(4-methyl-1,3-thiazol-5-yl)phenyl]methyl}pyrrolidine-2-carboxamide], the Dmax (VCaP, read-out: VCaP Dmax (%)) was 51 to 70%. For the same compound, the DC50 under setting [2] was below 50 nM.
